Measurements from publication PMC7688903 (Frontiers in Microbiology, 2020).
Values after ≈ are worked out from the molar mass of the structure shown. “Also recorded” adds a separate entry of the source. Where a SMILES comes first, the peptide text is derived from it. Where no end group is shown, it is not given here. [ ]: non-standard residue; d: D form. 2Thi = N[C@@H](Cc1cccs1)C(=O)O; Aib = CC(C)(N)C(=O)O

How the values were obtained:
Trypsin = assay: trypsin in 0.1 M NH4HCO3 buffer (pH 8.2); settings: 37°C, up to 24 h
[1] = plasma from healthy volunteers; settings: human, 37°C, up to 36 h
C. albicans ATCC 10231 = assay: microbe, parasite or virus in culture; assay type: cell-based, Candida albicans; settings: ATCC 10231, 48 h
Description: (§1) The antimicrobial activities of the peptides were tested against E. coli ATCC 25922, P. aeruginosa ATCC 27853, carbapenem-resistant P. aeruginosa SIPI-012, A. baumannii ATCC 19606, carbapenem-resistant A. baumannii SIPI-025, S. aureus ATCC 25923, and C. albicans ATCC 10231. The minimum inhibitory concentration (MIC) values were determined using the microdilution method according to Clinical and Laboratory Standards Institute guidelines ([CLSI, 2008], [2012]). The peptides were dissolved in 10 mM PB to a concentration of 1280 μg/mL as stock solutions.
(§2) For inoculum preparation of bacteria, morphologically similar colonies selected from fresh MH agar plates were transferred using a loop into approximately 10 mL of MH broth in a capped test tube and vortexed. The suspension was adjusted with MH broth to achieve a turbidity equivalent to a 0.5 McFarland standard (BaSO4 solution prepared spectrophotometrically). A working suspension was prepared by making a 1:15 dilution followed by a 1:20 dilution of the stock suspension with MH broth medium to obtain approximately 5 × 10^5 CFU/mL. For inoculum preparation of yeast, five fresh colonies of approximately 1 mm diameter were picked from 24-hour-old cultures of C. albicans and suspended in 5 mL of sterile 0.85% saline. The resulting suspension was vortexed and the cell density was adjusted by adding sufficient sterile saline to achieve a turbidity equivalent to a 0.5 McFarland standard. A working suspension was prepared by making a 1:100 dilution followed by a 1:20 dilution of the stock suspension with RPMI 1640 broth medium to obtain 0.5 × 10^3 to 2.5 × 10^3 CFU/mL. Intermediate twofold dilutions of the peptides were prepared in MH broth and RPMI 1640 medium, and 90 μL aliquots were added to each well in addition to 10 μL of the inoculum prepared above.
(§3) Each plate included a growth control well and a sterility (uninoculated) control well. Colistin, vancomycin hydrochloride, and amphotericin B were used as positive controls for gram-negative bacteria, gram-positive bacteria, and fungi, respectively. The bacterial and fungal plates were incubated at 37°C for 20 h and 35°C for 48 h, respectively, both under ambient atmosphere. The inhibition of microbial growth was assessed visually. The MICs were determined from independent triplicate assays.

S. aureus ATCC 25923 = assay: microbe, parasite or virus in culture; assay type: cell-based, Staphylococcus aureus; settings: ATCC 25923, 20 h
Description: as §1, §2, §3

human erythrocytes = assay: Hemolytic activity assay; assay type: cell-based; settings: human RBC in PB, 37°C, 1 h, OD420, total lysis control 0.1% SDS, three technical replicates
Description: Whole blood was obtained from a healthy volunteer. The red blood cells (RBC) were then centrifuged (800 × g, 10 min), washed twice with PB, resuspended in 1 mL of PB, and incubated with various concentrations of the peptides (32–128 μM) at 37°C for 1 h. As a positive control, total lysis of the RBC was accomplished by incubation with 0.1% SDS. For each condition, three technical replicates were performed. After incubation, the RBC were centrifuged at 800 × g for 10 min and the amount of hemoglobin released into the supernatant was determined by measuring the optical density OD420 using a SpectraMax i3x microplate reader (Molecular Devices) ([Zaet et al., 2017]).

E. coli ATCC 25922 = assay type: cell-based, Escherichia coli; settings: ATCC 25922, 20 h
Description: as §1, §2, §3

[2] = system: carbapenem-resistant A. baumannii (CRAB) SIPI-025; assay type: cell-based, Acinetobacter baumannii; settings: carbapenem-resistant (CRAB) SIPI-025, 20 h
Description: as §1, §2, §3

A. baumannii ATCC 19606 = assay type: cell-based, Acinetobacter baumannii; settings: ATCC 19606, 20 h
Description: as §1, §2, §3

[3] = system: proteases secreted by S. aureus ATCC 25923; assay: in vitro; settings: for Percent of remained peptide amount after incubation (%): S. aureus ATCC 25923 culture supernatant (MH broth), pH 8.0, 0.22 μm filtered, peptide 0.5 mg/mL, 37°C, 24 h, RP-HPLC
Description: The stabilities of the peptides toward proteases secreted by E. coli ATCC 25922, P. aeruginosa ATCC 27853, A. baumannii ATCC 19606, S. aureus ATCC 25923, and C. albicans ATCC 10231 were also examined. Microbial supernatants were prepared by resuspending single colonies of each strain in 20 mL of an appropriate culture medium followed by incubation at 37°C overnight. MH broth and 2% tryptone/2% dextrose were used as the culture media for bacteria and yeast, respectively. Each culture was then centrifuged at 12,000 × g for 10 min and the supernatant was adjusted to pH 8.0 with HCl or NaOH and then filtered through a 0.22 μm sterile filter membrane ([Zaet et al., 2017]). The peptides were then dissolved in the filtered supernatants to a concentration of 0.5 mg/mL, and the peptide-free supernatants were used as negative controls. The samples were incubated at 37°C for 24 h in a water bath and then analyzed by RP-HPLC as described above.

RAW 264.7 cells = assay: Cell viability assay (MTT); assay type: cell-based, mouse; settings: 1–128 μM peptide in DMEM with 4% FBS, 42 h, 595 nm, triplicate
Description: The peptides were dissolved in ddH2O to a concentration of 256 μM. RAW 264.7 cells were cultured in 100 μL of DMEM containing 10% FBS and seeded at a density of 1 × 10^4 cells in a 96-well culture plate. The plate was incubated at 37°C under 5% CO2 atmosphere overnight. After attaining 80% confluency, the cells were treated with various concentrations of the peptides (1–128 μM) dissolved in DMEM containing 4% FBS for 42 h. Cytotoxicity was determined using the MTT tetrazolium reduction assay and quantified spectrophotometrically at 595 nm using a SpectraMax i3x microplate reader. The cell viability was calculated with respect to control samples treated only with DMEM containing 4% FBS ([Khara et al., 2016]). Each test was done in triplicate and the concentration required for 50% inhibition of viability (IC50) was determined.

P. aeruginosa ATCC 27853 = assay type: cell-based, Pseudomonas aeruginosa; settings: ATCC 27853, 20 h
Description: as §1, §2, §3

[4] = system: carbapenem-resistant P. aeruginosa (CRPA) SIPI-012; assay type: cell-based, Pseudomonas aeruginosa; settings: carbapenem-resistant (CRPA) SIPI-012, 20 h
Description: as §1, §2, §3

human plasma proteases = assay: in vitro

Molecule | fragment found (Trypsin) | fragment found [1] | MIC (C. albicans ATCC 10231) [µg/mL] | MIC (S. aureus ATCC 25923) [µg/mL] | Hemolysis rate (%) (human erythrocytes; 64 μM) | Hemolysis rate (%) (human erythrocytes; 128 μM) | MIC (E. coli ATCC 25922) [µg/mL] | MIC [2] [µg/mL] | MIC (A. baumannii ATCC 19606) [µg/mL] | Percent of remained peptide amount after incubation (%) [3] [%] | IC50 (RAW 264.7 cells) [µM] | MIC (P. aeruginosa ATCC 27853) [µg/mL] | MIC [4] [µg/mL] | metabolised at 2 h, 0.1 mg/mL (human plasma proteases) [%] | metabolised at 4 h, 0.1 mg/mL (human plasma proteases) [%] | remaining at 24 h, 0.5 mg/mL ([3]; Staphylococcus aureus, S. aureus ATCC 25923 culture supernatant, pH 8) [%]
krLFkkLLKYLRkF | (K) YLR (k) 10–12, major, 18 h; also recorded: krLFkkLLK (Y) 1–9, major, 18 h; also recorded: (K) YLRkF 10–14, major, 18 h | (K) YLRkF 10–14, major, 12 h; also recorded: krLFkkLL (K) 1–8, major, 12 h |  |  |  |  |  |  |  |  |  |  |  |  |  | 
DabHorLFDabDabLLDabYLRDabF | (Dab) YLRDab (F) 10–13, major, 18 h; also recorded: (Dab) DabLLDabYLRDab (F) 6–13, major, 18 h; also recorded: (Hor) LFDabDabLLDabYLR (Dab) 3–12, major, 18 h; also recorded: (Dab) HorLFDabDabLLDab (Y) 2–9, major, 18 h; also recorded: DabHorLFDabDabLLDabYLR (Dab) 1–12, major, 18 h | (Hor) LFDabDabLLDabYLRDabF, major, 12 h |  |  |  |  |  |  |  |  |  |  |  |  |  | 
[Aib]RLFKKLLKYLRK[2Thi] | (K) KLLK (Y) 6–9, major, 18 h; also recorded: (R) LFKK (L) 3–6, major, 18 h; also recorded: (K) LLK (Y) 7–9, major, 18 h; also recorded: (K) YLR (K) 10–12, major, 18 h; also recorded: (R) LFK (K) 3–5, major, 18 h | (R) LFKKLLKYLRKThi 3–14, major, 12 h |  |  |  |  |  |  |  |  |  |  |  |  |  | 
DapHorLFDapDapLLDabYLHorDabThi | (Dap) HorLFDap (Dap) 2–5, major, 18 h; also recorded: DapHorLFDapDapLLDab (Y) 1–9, major, 18 h; also recorded: DapHorLFDapDapLLDabYLHor (Dab) 1–12, major, 18 h; also recorded: (Dap) HorLFDapDapLLDabYLHorDabThi 2–14, major, 18 h | (Dap) HorLFDapDapLLDabYLHorDabThi 2–14, major, 12 h |  |  |  |  |  |  |  |  |  |  |  |  |  | 
DabRLThiDapDabLLDabYLHorDabF | (Dab) RLThiDapDabLLDab (Y) 2–9, major, 18 h; also recorded: (R) LThiDapDabLLDabYLHor (Dab) 3–12, major, 18 h | (R) LThiDapDabLLDabYLHorDab F 3–14, major, 12 h; also recorded: (Dab) RLThiDapDabLLDabYLHorDabF 2–14, major, 12 h |  |  |  |  |  |  |  |  |  |  |  |  |  | 
KRLFKRLFKYLRRF | (R) RF 13–14, major, 18 h; also recorded: (K) YLRR (F) 10–13, major, 18 h; also recorded: (R) F 14, major, 18 h; also recorded: (K) YLR (R) 10–12, major, 18 h | (K) YLRRF 10–14, major, 12 h; also recorded: (K) RLFKRLFKYLRRF 2–14, major, 12 h |  |  |  |  |  |  |  |  |  |  |  |  |  | 
CC(C)C[C@H](NC(=O)[C@H](Cc1ccc(O)cc1)NC(=O)[C@H](CCCCN)NC(=O)[C@H](CC(C)C)NC(=O)[C@H](CC(C)C)NC(=O)[C@H](CCCCN)NC(=O)[C@H](CCCCN)NC(=O)[C@H](Cc1cccs1)NC(=O)[C@H](CC(C)C)NC(=O)[C@H](CCCNC(=N)N)NC(=O)[C@@H](N)CCCCN)C(=O)N[C@@H](CCCNC(=N)N)C(=O)N[C@@H](CCCCN)C(=O)N[C@@H](Cc1cccs1)C(N)=O [UP07] (H-KRL[2Thi]KKLLKYLRK[2Thi]-NH2) |  |  | 4 (≈ 2.11 µM) | 1 (≈ 0.528 µM) | 18.23 ± 2.76 | 30.10 ± 2.61 | 1 (≈ 0.528 µM) | 2 (≈ 1.06 µM) | 2 (≈ 1.06 µM) | 24.86 ± 3.88 | 17.5 ± 2.99 | 1 (≈ 0.528 µM) | 4 (≈ 2.11 µM) | > 40 | > 50 | 
CC(C)C[C@H](NC(=O)[C@H](Cc1ccc(O)cc1)NC(=O)[C@H](CCCCN)NC(=O)[C@H](CC(C)C)NC(=O)[C@H](CC(C)C)NC(=O)[C@@H](CCCCN)NC(=O)[C@@H](CCCCN)NC(=O)[C@H](Cc1ccccc1)NC(=O)[C@H](CC(C)C)NC(=O)[C@H](CCCNC(=N)N)NC(=O)[C@@H](N)CCCCN)C(=O)N[C@@H](CCCNC(=N)N)C(=O)N[C@H](CCCCN)C(=O)N[C@@H](Cc1ccccc1)C(N)=O [DP04] (H-KRLF[dK][dK]LLKYLR[dK]F-NH2) |  |  | 4 (≈ 2.13 µM) | 0.5 (≈ 0.266 µM) | 38.84 ± 1.61 | 58.26 ± 1.84 | 1 (≈ 0.532 µM) | 1 (≈ 0.532 µM) | 2 (≈ 1.06 µM) |  | 34.7 ± 3.69 | 1 (≈ 0.532 µM) | 4 (≈ 2.13 µM) | > 40 | > 50 | 63.7 ± 8.1
CC(C)C[C@H](NC(=O)[C@H](Cc1ccc(O)cc1)NC(=O)[C@H](CCCCN)NC(=O)[C@H](CC(C)C)NC(=O)[C@H](CC(C)C)NC(=O)[C@H](CCCCN)NC(=O)[C@H](CCCCN)NC(=O)[C@H](Cc1ccccc1)NC(=O)[C@H](CC(C)C)NC(=O)[C@H](CCCNC(=N)N)NC(=O)[C@@H](N)CCCCN)C(=O)N[C@@H](CCCNC(=N)N)C(=O)N[C@@H](CCCCN)C(=O)N[C@@H](Cc1cccs1)C(N)=O [UP08] (H-KRLFKKLLKYLRK[2Thi]-NH2) |  |  | 4 (≈ 2.12 µM) | 1 (≈ 0.53 µM) | 52.49 ± 2.25 | 86.84 ± 1.24 | 2 (≈ 1.06 µM) | 2 (≈ 1.06 µM) | 2 (≈ 1.06 µM) | 26.85 ± 2.61 | 14.6 ± 2.96 | 2 (≈ 1.06 µM) | 4 (≈ 2.12 µM) | > 40 | > 50 | 
